Experimental data reported in PubChem BioAssay AID328 (DTP/NCI, 2004).
Values joined by “and” are separate entries in the source; they are usually repeats but may differ in a detail not shown here. Equal entries are not always repeated. Inconclusive results and toxic doses are left out. Residues, ends and D or L forms follow the SMILES beside them.

Test system: BDF1 mice, P388 leukemia ip, median survival T/C
Assay: NCI In Vivo Anticancer Drug Screen. Data for tumor model P388 Leukemia (intraperitoneal) in B6D2F1 (BDF1) mice
Settings: endpoint: median survival time, higher = longer survival
Outline: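 Steps: implant the tumour, treat one group with compound and another with vehicle, record survival, then divide treated by control.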

[1] = dose: 50.0 mg/kg/injection, schedule: Q01DX009 (ip), vehicle: Klucel (hydroxypropylcellulose) (HPC)
[2] = dose: 100.0 mg/kg/injection, schedule: Q01DX009 (ip), vehicle: Klucel (hydroxypropylcellulose) (HPC)
[3] = dose: 100.0 mg/kg/injection, schedule: Q04DX003 (ip), vehicle: Klucel (hydroxypropylcellulose) (HPC)
[4] = dose: 200.0 mg/kg/injection, schedule: Q04DX003 (ip), vehicle: Klucel (hydroxypropylcellulose) (HPC)
[5] = dose: 400.0 mg/kg/injection, schedule: Q04DX003 (ip), vehicle: Klucel (hydroxypropylcellulose) (HPC)
[6] = dose: 25.0 mg/kg/injection, schedule: Q04DX003 (ip), vehicle: saline
[7] = dose: 50.0 mg/kg/injection, schedule: Q04DX003 (ip), vehicle: saline
[8] = dose: 100.0 mg/kg/injection, schedule: Q04DX003 (ip), vehicle: saline
[9] = dose: 25.0 mg/kg/injection, schedule: Q01DX009 (ip), vehicle: saline
[10] = dose: 50.0 mg/kg/injection, schedule: Q01DX009 (ip), vehicle: saline
[11] = dose: 100.0 mg/kg/injection, schedule: Q01DX009 (ip), vehicle: saline
[12] = dose: 200.0 mg/kg/injection, schedule: Q01DX009 (ip), vehicle: saline
[13] = dose: 200.0 mg/kg/injection, schedule: Q04DX003 (ip), vehicle: saline
[14] = dose: 400.0 mg/kg/injection, schedule: Q04DX003 (ip), vehicle: saline
[15] = dose: 100.0 mg/kg/injection, schedule: Q04DX003 (ip), vehicle: saline with Tween-80
[16] = dose: 200.0 mg/kg/injection, schedule: Q04DX003 (ip), vehicle: saline with Tween-80
[17] = dose: 400.0 mg/kg/injection, schedule: Q04DX003 (ip), vehicle: saline with Tween-80

Structure (SMILES): Cc1nc2ccccc2c(Cl)c1C
- T/C (dose: 25.0 mg/kg/injection, schedule: Q01DX009 (ip), vehicle: Klucel (hydroxypropylcellulose) (HPC)): 102 % of control
- T/C [1]: 105 % of control
- T/C [2]: 103 % of control

Structure (SMILES): CC1(C)Oc2nc(N)nc(N)c2C1c1ccc(Cl)cc1 (stereo unspecified)
- T/C [3]: 104 % of control
- T/C [4]: 100 % of control
- T/C [5]: 95 % of control

Structure (SMILES): CC(C)CN1CCOCC1
- T/C [6]: 95 % of control
- T/C [7]: 108 % of control
- T/C [8]: 95 % of control

Structure (SMILES): COc1ccc(C=[N+](C)CCc2ccc(OC)c(OC)c2)cc1OC
- T/C [9]: 95 % of control
- T/C [10]: 101 % of control
- T/C [7]: 106 % of control
- T/C [11]: 100 % of control
- T/C [8]: 102 % of control
- T/C [12]: 116 % of control
- T/C [13]: 100 % of control
- T/C [14]: 106 % of control

Structure (SMILES): C#CCOC(=O)NCCC
- T/C [1]: 110 % of control
- T/C (dose: 50.0 mg/kg/injection, schedule: Q04DX003 (ip), vehicle: Klucel (hydroxypropylcellulose) (HPC)): 95 % of control
- T/C [2]: 105 % of control
- T/C [3]: 104 % of control
- T/C (dose: 200.0 mg/kg/injection, schedule: Q01DX009 (ip), vehicle: Klucel (hydroxypropylcellulose) (HPC)): 115 % of control
- T/C [4]: 104 % of control

Structure (SMILES): Cc1ccccc1N=C(N)N=C(N)N
- T/C [10]: 100 % of control
- T/C [11]: 100 % of control

Structure (SMILES): O=C1C=CC(=O)N1c1ccc(Cl)cc1
- T/C (dose: 1.25 mg/kg/injection, schedule: Q04DX003 (ip), vehicle: Klucel (hydroxypropylcellulose) (HPC)): 114 % of control
- T/C (dose: 2.5 mg/kg/injection, schedule: Q01DX009 (ip), vehicle: Klucel (hydroxypropylcellulose) (HPC)): 159 % of control
- T/C (dose: 2.5 mg/kg/injection, schedule: Q04DX003 (ip), vehicle: Klucel (hydroxypropylcellulose) (HPC)): 122 % of control
- T/C (dose: 5.0 mg/kg/injection, schedule: Q04DX003 (ip), vehicle: Klucel (hydroxypropylcellulose) (HPC)): 108 % of control
- T/C (dose: 10.0 mg/kg/injection, schedule: Q04DX003 (ip), vehicle: Klucel (hydroxypropylcellulose) (HPC)): 107 % of control
- T/C (dose: 20.0 mg/kg/injection, schedule: Q01DX009 (ip), vehicle: Klucel (hydroxypropylcellulose) (HPC)): 115 % of control

Structure (SMILES): COC(=O)c1cccn1C(=O)c1c2nc3c(C(=O)n4cccc4C(=O)OC)ccc(C)c3oc-2c(C)c(=O)c1N
- T/C [15]: 101 % of control
- T/C [16]: 102 % of control
- T/C [17]: 103 % of control

Structure (SMILES): C/C(=N/O)[c-]1[c-][c-][c-][c-]1.[Fe].[c-]1[c-][c-][cH-][c-]1
- T/C (dose: 25.0 mg/kg/injection, schedule: Q04DX003 (ip), vehicle: saline with Tween-80): 100 % of control
- T/C (dose: 50.0 mg/kg/injection, schedule: Q04DX003 (ip), vehicle: saline with Tween-80): 109 % of control
- T/C [15]: 109 % of control

Structure (SMILES): CC(C)C(N)C(=O)NC(Cc1ccc(O)cc1)C(=O)NC(C(=O)O)C(C)C (stereo not drawn) (H-Val-Tyr-Val-OH; configuration not given here)
- T/C (dose: 50.0 mg/kg/injection, schedule: Q01DX005 (ip), vehicle: saline): 89 % of control
- T/C (dose: 100.0 mg/kg/injection, schedule: Q01DX005 (ip), vehicle: saline): 97 % of control
- T/C (dose: 200.0 mg/kg/injection, schedule: Q01DX005 (ip), vehicle: saline): 92 % of control

Structure (SMILES): NC(=O)NN=C1COC(c2ccccc2)OC1 (stereo unspecified)
- T/C [10]: 110 % of control
- T/C [11]: 110 % of control
- T/C [8]: 116 % of control
- T/C [12]: 91 % of control
- T/C [13]: 104 % of control

Structure (SMILES): O=c1cc(-c2ccccc2)[nH]c(=S)[nH]1
- T/C [15]: 95 % of control
- T/C [16]: 104 % of control
- T/C [17]: 100 % of control

Structure (SMILES): CC(O)C(O)C(O)C(O)/C=N/O (stereo unspecified)
- T/C [4]: 92 % of control
- T/C [5]: 88 % of control

Structure (SMILES): O=C(CNC(=O)Nc1n[nH]c(=S)s1)N/N=C/c1ccc2c(c1)OCO2
- T/C (dose: 50.0 mg/kg/injection, schedule: Q01DX009 (ip), vehicle: saline with Tween-80): 116 % of control
- T/C (dose: 100.0 mg/kg/injection, schedule: Q01DX009 (ip), vehicle: saline with Tween-80): 100 % of control
- T/C (dose: 200.0 mg/kg/injection, schedule: Q01DX009 (ip), vehicle: saline with Tween-80): 98 % of control

Structure (SMILES): C=C1C(O)C2(O)OCC34C(CC5C(C)=CC(=O)C(O)C5(C)C23)OC(=O)C(O)C14 (stereo unspecified)
- T/C (dose: 0.06 mg/kg/injection, schedule: Q01DX009 (ip), vehicle: saline): 95 % of control
- T/C (dose: 0.25 mg/kg/injection, schedule: Q01DX009 (ip), vehicle: saline): 106 % of control
- T/C (dose: 1.0 mg/kg/injection, schedule: Q01DX009 (ip), vehicle: saline): 98 % of control

Structure (SMILES): Nc1ccc2cc3ccc(N)cc3nc2c1
- T/C [9]: 86 % of control

Structure (SMILES): O=NN(CCCl)C(=O)Nc1ccc2[nH]c3ccccc3c2c1
- T/C (dose: 30.0 mg/kg/injection, schedule: Q01DX009 (ip), vehicle: Klucel (hydroxypropylcellulose) (HPC)): 183 % of control
- T/C (dose: 45.0 mg/kg/injection, schedule: Q01DX009 (ip), vehicle: Klucel (hydroxypropylcellulose) (HPC)): 175 % of control
- T/C (dose: 65.0 mg/kg/injection, schedule: Q01DX009 (ip), vehicle: Klucel (hydroxypropylcellulose) (HPC)): 183 % of control and 192 % of control
- T/C (dose: 130.0 mg/kg/injection, schedule: Q01DX009 (ip), vehicle: Klucel (hydroxypropylcellulose) (HPC)): 208 % of control

Structure (SMILES): NS(=O)(=O)c1ccc(N=Nc2nc3ncnc(SCc4cccs4)c3[nH]2)cc1
- T/C (dose: 100.0 mg/kg/injection, schedule: Q01DX009 (ip), vehicle: other): 95 % of control
- T/C [8]: 104 % of control
- T/C (dose: 200.0 mg/kg/injection, schedule: Q01DX009 (ip), vehicle: other): 118 % of control
- T/C [13]: 104 % of control
- T/C (dose: 400.0 mg/kg/injection, schedule: Q01DX009 (ip), vehicle: other): 86 % of control
- T/C [14]: 108 % of control

Structure (SMILES): C[n+]1csc(=S)[nH]1
- T/C [6]: 86 % of control
- T/C [7]: 95 % of control
- T/C [8]: 100 % of control

Structure (SMILES): Nc1ccc(C(=O)Nc2ccc(Nc3ccncc3)cc2)c([N+](=O)[O-])c1
- T/C (dose: 12.5 mg/kg/injection, schedule: Q01DX009 (ip), vehicle: saline): 97 % of control
- T/C [9]: 97 % of control
- T/C [10]: 119 % of control
- T/C [7]: 94 % of control
- T/C (dose: 75.0 mg/kg/injection, schedule: Q01DX009 (ip), vehicle: saline): 90 % of control
- T/C [11]: 108 % of control
- T/C [8]: 100 % of control
- T/C [12]: 111 % of control
- T/C [13]: 92 % of control
- T/C (dose: 400.0 mg/kg/injection, schedule: Q01DX009 (ip), vehicle: saline): 111 % of control
- T/C [14]: 92 % of control
